Format in all cases: physicochemical
A short description of data set [1]: Stability test at high temperature. As for the experimental part:
The crystalline form II prepared in example 2 was subjected to a stability test at 60° C., and the results were shown in Table 7 below.

Data set [2] is described as follows: Stability test at room temperature. As to conditions: for Purity after 180 days / Crystalline form after 180 days: sealed medicinal low density polyethylene bags; for Purity after 180 days: HPLC; for Crystalline form after 180 days: XRPD. The text has this:
The crystalline form II prepared in example 2, crystalline form IV prepared in example 4, crystalline form VI prepared in example 8, and crystalline form VII prepared in example 10 were respectively placed in medicinal low density polyethylene bags, sealed, and maintained at room temperature for 180 days, detected by PANalytical X-ray powder diffractometer for its XRPD, and by high performance liquid chromatography for its purity.

Data set [3] in a line: Stability test under high humidity. An excerpt: The crystalline form IV prepared in example 4 was subjected to a stability test at 92.5% RH, and the results were shown in Table 8 below.

Take `COC(=O)C1=C2C[C@H](NS(N)(=O)=O)CN2C(c2nccs2)=N[C@H]1c1ccc(F)c(F)c1F` [Crystalline form II, methyl (3R,6S)-6-aminosulfonylamino-1-(thiazol-2-yl)-3-(2,3,4-trifluorophenyl)-3,5,6,7-tetrahydropyrrolo[1,2-c]pyrimidin-4-formate]: in data set [1] (60° C. test, initial), the “HPLC purity (%) Initial” value amounted to 96.8%. In addition, in data set [1] (60° C., after 10 days), the “Crystalline form After 10 days” value is “crystalline form unchanged” and the “HPLC purity (%) After 10 days” value is 96.6%. Moreover, in data set [1] (high temperature condition, 10 days), the “change in purity and crystalline form (in words)” value is “no change in purity and crystalline form”. In data set [2], the “purity and crystalline form after 180 days (in words)” value was “remained unchanged”; the “Purity after 180 days” value amounted to 99.5%; the “Crystalline form after 180 days” value is on record as “unchanged”.

For the compound `COC(=O)C1=C2C[C@H](NS(N)(=O)=O)CN2C(c2nccs2)=N[C@H]1c1ccc(F)c(F)c1F` [Crystalline form IV, methyl (3R,6S)-6-aminosulfonylamino-1-(thiazol-2-yl)-3-(2,3,4-trifluorophenyl)-3,5,6,7-tetrahydropyrrolo[1,2-c]pyrimidin-4-formate], the “HPLC purity (%) Initial” value in data set [3] (92.5% RH test, initial) came to 99.2%. For the same compound, the “HPLC purity (%) After 10 days” value in data set [3] (92.5% RH, after 10 days) was 99.1%. For the same compound, the “change in purity and crystal form (in words)” value in data set [3] (high humidity condition, 10 days) was “no change in purity and crystal form”. Also, the “purity, color, and properties on preservation at high humidity (in words)” value in data set [3] (relative humidity of up to 92.5% RH) is “purity, color, and properties unchanged”. Further, in data set [2], the “purity and crystalline form after 180 days (in words)” value is “remained unchanged”; the “Purity after 180 days” value was 99.3%; the “Crystalline form after 180 days” value was “unchanged”.

Take `COC(=O)C1=C2C[C@H](NS(N)(=O)=O)CN2C(c2nccs2)=N[C@H]1c1ccc(F)c(F)c1F` [Crystalline form VI, methyl (3R,6S)-6-aminosulfonylamino-1-(thiazol-2-yl)-3-(2,3,4-trifluorophenyl)-3,5,6,7-tetrahydropyrrolo[1,2-c]pyrimidin-4-formate]: in data set [2], the “purity and crystalline form after 180 days (in words)” value was “remained unchanged”; the “Purity after 180 days” value is listed as 99.7%; the “Crystalline form after 180 days” value was “unchanged”.

As to `COC(=O)C1=C2C[C@H](NS(N)(=O)=O)CN2C(c2nccs2)=N[C@H]1c1ccc(F)c(F)c1F` [Crystalline form VII, methyl (3R,6S)-6-aminosulfonylamino-1-(thiazol-2-yl)-3-(2,3,4-trifluorophenyl)-3,5,6,7-tetrahydropyrrolo[1,2-c]pyrimidin-4-formate], in data set [2], the “purity and crystalline form after 180 days (in words)” value is on record as “remained unchanged”; the “Purity after 180 days” value is on record as 99.5%; the “Crystalline form after 180 days” value is on record as “unchanged”.

The record behind these values is US10662198B2, “Polymorphic form of compound, preparation method and use thereof” (QILU PHARMACEUTICAL CO., LTD., priority 2017, dated 2020).
